Measured values taken from ChEMBL document CHEMBL3085727 (J Med Chem, 2013).
The source made the active and inactive calls. No cut-off for these calls is given here.

Assays:
Homo sapiens [1] = species: Homo sapiens; test: Selectivity ratio of Ki for delta opioid receptor (unknown origin) to Ki for kappa opioid receptor (unknown origin)
Homo sapiens [2] = species: Homo sapiens; test: Selectivity ratio of Ki for kappa opioid receptor (unknown origin) to Ki for mu opioid receptor (unknown origin)
Homo sapiens [3] = species: Homo sapiens; test: Selectivity ratio of Ki for delta opioid receptor (unknown origin) to Ki for mu opioid receptor (unknown origin)
Mus musculus [4] = test: Induction of withdrawal symptoms in chronic morphine-exposed Swiss-Webster mouse assessed as decrease in wet dog shakes at 10 to 30 mg/kg, sc measured over 20 mins; format: organism-based; design: dose 10-30 mg/kg, route subcutaneous; details: in vivo
Homo sapiens [5] = species: Homo sapiens; test: Selectivity ratio of Ki for mu opioid receptor (unknown origin) to Ki for kappa opioid receptor (unknown origin)
Mus musculus [6] = test: Induction of withdrawal symptoms in chronic morphine-exposed Swiss-Webster mouse assessed as decrease in escape jumps at 30 mg/kg, sc measured over 20 mins; format: organism-based; design: dose 30 mg/kg, route subcutaneous; details: in vivo
Mu-type opioid receptor [7] = molecular target: T1, Mu-type opioid receptor (Homo sapiens, UniProt P35372); test: Agonist activity at mu opioid receptor (unknown origin) expressed in CHO cell membranes assessed as stimulation of [35S]-GTPgammaS binding at 10 uM after 1.5 hrs relative to DAMGO; format: functional
T1 sequence (P35372 whole entry): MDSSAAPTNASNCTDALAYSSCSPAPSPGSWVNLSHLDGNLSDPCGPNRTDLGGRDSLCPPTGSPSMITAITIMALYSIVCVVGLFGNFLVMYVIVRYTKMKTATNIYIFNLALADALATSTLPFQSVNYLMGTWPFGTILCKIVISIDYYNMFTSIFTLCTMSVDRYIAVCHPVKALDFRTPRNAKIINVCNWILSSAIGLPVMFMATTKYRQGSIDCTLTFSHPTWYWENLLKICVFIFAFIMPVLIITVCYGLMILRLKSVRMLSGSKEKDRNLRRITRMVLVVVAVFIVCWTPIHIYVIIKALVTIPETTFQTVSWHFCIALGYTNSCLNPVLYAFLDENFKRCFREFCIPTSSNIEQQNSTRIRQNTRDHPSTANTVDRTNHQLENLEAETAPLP

Mus musculus [8] = test: Induction of withdrawal symptoms in chronic morphine-exposed Swiss-Webster mouse assessed as decrease in escape jumps at 3 to 10 mg/kg, sc measured over 20 mins; format: organism-based; design: dose 3-10 mg/kg, route subcutaneous; details: in vivo
[9] = molecular target: Delta-type opioid receptor (Homo sapiens) (UniProt P41143); test: Agonist activity at delta opioid receptor (unknown origin) expressed in CHO cell membranes assessed as stimulation of [35S]-GTPgammaS binding after 1.5 hrs relative to SNC80; format: functional
Chain of Delta-type opioid receptor (Homo sapiens) (P41143 whole entry): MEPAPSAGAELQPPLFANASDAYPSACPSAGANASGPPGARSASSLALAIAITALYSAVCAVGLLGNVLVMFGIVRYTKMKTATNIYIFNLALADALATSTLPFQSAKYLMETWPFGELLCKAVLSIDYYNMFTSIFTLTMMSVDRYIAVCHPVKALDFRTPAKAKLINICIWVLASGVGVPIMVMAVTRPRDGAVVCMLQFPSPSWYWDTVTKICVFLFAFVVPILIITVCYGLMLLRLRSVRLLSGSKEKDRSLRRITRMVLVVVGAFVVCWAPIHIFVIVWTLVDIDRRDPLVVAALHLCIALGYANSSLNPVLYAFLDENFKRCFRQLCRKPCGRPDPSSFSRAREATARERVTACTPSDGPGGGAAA

[10] = molecular target: T2, Kappa-type opioid receptor (Homo sapiens, UniProt P41145); test: Agonist activity at kappa opioid receptor (unknown origin) expressed in CHO cell membranes assessed as stimulation of [35S]-GTPgammaS binding after 1.5 hrs relative to U50488; format: functional
T2 sequence (P41145 whole entry): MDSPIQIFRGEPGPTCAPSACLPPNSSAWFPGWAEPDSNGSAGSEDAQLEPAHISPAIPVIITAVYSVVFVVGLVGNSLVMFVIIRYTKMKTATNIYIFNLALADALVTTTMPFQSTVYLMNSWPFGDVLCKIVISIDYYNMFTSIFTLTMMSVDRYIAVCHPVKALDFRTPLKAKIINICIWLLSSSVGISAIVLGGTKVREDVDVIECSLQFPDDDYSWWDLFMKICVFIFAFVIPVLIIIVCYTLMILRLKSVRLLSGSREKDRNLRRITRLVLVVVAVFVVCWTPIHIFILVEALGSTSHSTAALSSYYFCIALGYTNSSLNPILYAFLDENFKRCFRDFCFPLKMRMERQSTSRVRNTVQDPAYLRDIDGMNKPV

Mus musculus [11] = test: Induction of withdrawal symptoms in chronic morphine-exposed Swiss-Webster mouse assessed as decrease in wet dog shakes at 3 mg/kg, sc measured over 20 mins; format: organism-based; design: dose 3 mg/kg, route subcutaneous; details: in vivo
Mus musculus [12] = test: Reduction of morphine-induced antinociceptive activity in sc dosed Swiss-Webster mouse assessed as dose required to antagonize morphine effect by warm-water tail-flick assay; format: functional
Mus musculus [13] = test: Antinociceptive activity in Swiss-Webster mouse up to 30 mg/kg, sc by warm-water tail-flick assay; format: functional, organism-based; design: dose 30 mg/kg
Mu-type opioid receptor [14] = molecular target: T1, Mu-type opioid receptor; test: Agonist activity at mu opioid receptor (unknown origin) expressed in CHO cell membranes assessed as stimulation of [35S]-GTPgammaS binding after 1.5 hrs relative to DAMGO; format: functional
Mus musculus [15] = test: Induction of withdrawal symptoms in chronic morphine-exposed Swiss-Webster mouse assessed as decrease in wet dog shakes at 3 to 30 mg/kg, sc measured over 20 mins; format: organism-based; design: dose 3-30 mg/kg, route subcutaneous; details: in vivo
Mus musculus [16] = test: Induction of withdrawal symptoms in chronic morphine-exposed Swiss-Webster mouse assessed as decrease in escape jumps at 1 mg/kg, sc measured over 20 mins; format: organism-based; design: dose 1 mg/kg, route subcutaneous; details: in vivo
Mus musculus [17] = test: Induction of withdrawal symptoms in chronic morphine-exposed Swiss-Webster mouse assessed as decrease in wet dog shakes at 1 mg/kg, sc measured over 20 mins; format: organism-based; design: dose 1 mg/kg, route subcutaneous; details: in vivo
[18] = molecular target: T2, Kappa-type opioid receptor; test: Partial agonist activity at human kappa opioid receptor expressed in CHO cells assessed as stimulation of [35S]-GTPgammaS binding after 3 hrs by liquid scintillation counting analysis; format: functional, cell-based
Homo sapiens [19] = species: Homo sapiens; test: Selectivity ratio of Ki for human delta opioid receptor to Ki for human mu opioid receptor
Homo sapiens [20] = species: Homo sapiens; test: Selectivity ratio of Ki for human kappa opioid receptor to Ki for human mu opioid receptor
Mus musculus [21] = test: Induction of withdrawal symptoms in chronic morphine-exposed Swiss-Webster mouse assessed as decrease in escape jumps at 10 to 30 mg/kg, sc measured over 20 mins; format: organism-based; design: dose 10-30 mg/kg, route subcutaneous; details: in vivo

| Structure (SMILES) | Ratio Ki (Homo sapiens [1]) | Ratio Ki (Homo sapiens [2]) | Ratio Ki (Homo sapiens [3]) | Ratio Ki (Homo sapiens [5]) | Emax (Mu-type opioid receptor [14]) | further results |
| --- | --- | --- | --- | --- | --- | --- |
| O=C(O[C@@]12CCC(=O)[C@@H]3Oc4c(O)ccc5c4[C@@]31CCN(CC1CC1)[C@@H]2C5)c1ccc2ccccc2n1 | 0.34 | 47 | 16 |  |  |  |
| O=C(O[C@@]12CCC(=O)[C@@H]3Oc4c(O)ccc5c4[C@@]31CCN(CC1CC1)[C@@H]2C5)c1ccncc1 | 8.2 | 8.8 | 73 |  |  |  |
| Cl.O=C(N[C@@]12CCC(=O)[C@@H]3Oc4c(O)ccc5c4[C@@]31CCN(CC1CC1)[C@@H]2C5)c1ccccn1 | 263 |  | 63 | 4.2 |  | Activity (Mus musculus [4]): Toxic; Activity (Mus musculus [6]): Toxic; Emax (Mu-type opioid receptor [7]): 0.9%; Activity (Mus musculus [8]): Non-toxic; Emax [9]: 8.6%; Emax [10]: 24.9%; Activity (Mus musculus [11]): Non-toxic; Activity (Mus musculus [12]): 0.25 mg/kg; Activity (Mus musculus [13]): inactive |
| O=C(CCc1ccccn1)N[C@@]12CCC(=O)[C@@H]3Oc4c(O)ccc5c4[C@@]31CCN(CC1CC1)[C@@H]2C5 | 54 |  | 29 | 1.9 | 12.7% |  |
| O=C(Cc1ccccn1)N[C@@]12CCC(=O)[C@@H]3Oc4c(O)ccc5c4[C@@]31CCN(CC1CC1)[C@@H]2C5 | 21 |  | 14 | 1.5 | 78% |  |
| O=C(N[C@@]12CCC(=O)[C@@H]3Oc4c(O)ccc5c4[C@@]31CCN(CC1CC1)[C@@H]2C5)c1ccc2ccccc2c1 | 32 |  | 1.7 | 19 | 16.5% |  |
| Cl.O=C(N[C@@]12CCC(=O)[C@@H]3Oc4c(O)ccc5c4[C@@]31CCN(CC1CC1)[C@@H]2C5)c1cc2ccccc2cn1 | 93 |  | 7.2 | 13 |  | Activity (Mus musculus [15]): Toxic; Activity (Mus musculus [6]): Toxic; Emax (Mu-type opioid receptor [7]): 2.8%; Activity (Mus musculus [8]): Non-toxic; Emax [9]: 23.8%; Emax [10]: 16.8%; Activity (Mus musculus [12]): 0.87 mg/kg; Activity (Mus musculus [13]): inactive |
| O=C(N[C@@]12CCC(=O)[C@@H]3Oc4c(O)ccc5c4[C@@]31CCN(CC1CC1)[C@@H]2C5)c1ccncc1 | 33 |  | 13 | 2.5 | 7.7% |  |
| O=C(N[C@@]12CCC(=O)[C@@H]3Oc4c(O)ccc5c4[C@@]31CCN(CC1CC1)[C@@H]2C5)c1ccccc1 | 477 |  | 13 | 36 | 5.8% |  |
| O=C(O[C@@]12CCC(=O)[C@@H]3Oc4c(O)ccc5c4[C@@]31CCN(CC1CC1)[C@@H]2C5)c1ccccc1 | > 17 | 4.7 |  |  |  |  |
| C=CCN1CC[C@]23c4c5ccc(O)c4O[C@H]2C(=O)CC[C@@]3(O)[C@H]1C5 [NALOXONE] |  |  |  |  |  | Activity (Mus musculus [16]): Toxic; Activity (Mus musculus [17]): Toxic |
| Oc1cccc2c1O[C@H]1CCC[C@H]3CN(CC4CC4)CC[C@@]231 |  |  |  |  |  | EC50 [18]: 2.7 nM |
| O=C(N[C@@]12CCC(=O)[C@@H]3Oc4c(O)ccc5c4[C@@]31CCN(CC1CC1)[C@@H]2C5)c1ccc2ccccc2n1 | 58 |  | 1.7 | 35 | 34.4% |  |
| Cc1ccc(/C=C/C(=O)N[C@@]23CCC(=O)[C@@H]4Oc5c(O)ccc6c5[C@@]42CCN(CC2CC2)[C@@H]3C6)cc1 |  |  |  |  |  | Ratio Ki (Homo sapiens [19]): 1; Ratio Ki (Homo sapiens [20]): 3 |
| COc1cccc2c1[C@]13CCN(CC4CC4)[C@H](C2)[C@]1(OC)CCC(=O)C3 [CYPRODIME] |  | 10 | 39 |  |  |  |
| O=C(O[C@@]12CCC(=O)[C@@H]3Oc4c(O)ccc5c4[C@@]31CCN(CC1CC1)[C@@H]2C5)c1cccnc1 | 3.6 | 30 | 107 |  |  |  |
| O=C(CNC(=O)c1ccccn1)N[C@@]12CCC(=O)[C@@H]3Oc4c(O)ccc5c4[C@@]31CCN(CC1CC1)[C@@H]2C5 | 2.6 |  | 1.2 | 2.1 | 11.8% |  |
| O=C(O[C@@]12CCC(=O)[C@@H]3Oc4c(O)ccc5c4[C@@]31CCN(CC1CC1)[C@@H]2C5)c1ccccn1 | 4.6 | 182 | 838 |  |  |  |
| Cl.O=C(N[C@@]12CCC(=O)[C@@H]3Oc4c(O)ccc5c4[C@@]31CCN(CC1CC1)[C@@H]2C5)c1cccnc1 | 249 |  | 53 | 4.7 |  | Activity (Mus musculus [4]): Toxic; Activity (Mus musculus [21]): Toxic; Emax (Mu-type opioid receptor [7]): 5.1%; Emax [9]: 10.3%; Emax [10]: 35.3%; Activity (Mus musculus [12]): 0.55 mg/kg; Activity (Mus musculus [13]): inactive |
| O=C(N[C@@]12CCC(=O)[C@@H]3Oc4c(O)ccc5c4[C@@]31CCN(CC1CC1)[C@@H]2C5)c1cnc2ccccc2c1 | 11 |  | 1.3 | 8.7 | 15.8% |  |
| O=C(O[C@@]12CCC(=O)[C@@H]3Oc4c(O)ccc5c4[C@@]31CCN(CC1CC1)[C@@H]2C5)c1ccc2ccccc2c1 | 19 | 0.21 | 4 |  |  |  |
| Cc1ccc(/C=C/C(=O)O[C@@]23CCC(=O)[C@@H]4Oc5c(O)ccc6c5[C@@]42CCN(CC2CC2)[C@@H]3C6)cc1 |  |  |  |  |  | Ratio Ki (Homo sapiens [19]): 31; Ratio Ki (Homo sapiens [20]): 15 |
| O=C1CC[C@@]2(O)[C@H]3Cc4ccc(O)c5c4[C@@]2(CCN3CC2CC2)[C@H]1O5 [NALTREXONE] |  |  |  |  |  | Activity (Mus musculus [16]): Toxic; Activity (Mus musculus [17]): Toxic |
| O=C(O[C@@]12CCC(=O)[C@@H]3Oc4c(O)ccc5c4[C@@]31CCN(CC1CC1)[C@@H]2C5)c1cnc2ccccc2c1 | 5.5 | 55 | 304 |  | 22% |  |
